This is an account of results in PMC9906756 (2023).

What all share (test): luminescence titration
The subject of assay [1] is T13 (DNA, single strand) TTTTTTTTTTTTT
Particulars: 100 mM KCl, 10 mM potassium phosphate, pH 7, 10 μM Ru-PDC3, per base, site size 1, Table S2 prints error 0.6.

Assay [2] has as its system ds17 (DNA, duplex) CCAGTTCGTAGTAACCC/GGGTTACTACGAACTGG
The settings on record: 100 mM KCl, 10 mM potassium phosphate, pH 7, 10 μM Ru-PDC3, per base pair, site size 1.

The test system of assay [3] is 22AG (DNA, G4) AGGGTTAGGGTTAGGGTTAGGG
Particulars: 100 mM KCl, 10 mM potassium phosphate; pH 7; 10 μM Ru-PDC3; per G4 strand; site size 0.5.

In assay [4] the test system is TBA (DNA, G4) GGTTGGTGTGGTTGG
Particulars: 100 mM KCl, 10 mM potassium phosphate; pH 7; 10 μM Ru-PDC3; per G4 strand; site size 0.5.

Assay [5] deals with ss17 (DNA, single strand) CCAGTTCGTAGTAACCC
The settings on record: 100 mM KCl, 10 mM potassium phosphate, pH 7, 10 μM Ru-PDC3, per base, site size 1.

For assay [6], the system named is Pu24T (DNA, G4) TGAGGGTGGTGAGGGTGGGGAAGG
Particulars: 100 mM KCl, 10 mM potassium phosphate; pH 7; 10 μM Ru-PDC3; per G4 strand; site size 0.5.

In a further assay the test system is INTER (DNA, G4) TAGGGTTA
Particulars: 100 mM KCl, 10 mM potassium phosphate; pH 7; 10 μM Ru-PDC3; concentration as G4 strand equivalent; site size 0.5.

Assay [7] relates to K-ras (DNA, G4) AGGGCGGTGTGGGATAGGGAA
The settings on record: 100 mM KCl, 10 mM potassium phosphate; pH 7; 10 μM Ru-PDC3; per G4 strand; site size 0.5.

The test system of assay [8] is A13 (DNA, single strand) AAAAAAAAAAAAA
The settings on record: 100 mM KCl, 10 mM potassium phosphate, pH 7, 10 μM Ru-PDC3, per base, site size 0.5, Table S2 prints 2.3±1.2 × 10^6.

For the compound `C[n+]1cc(NC(=O)c2ccc3c(n2)c2nc(C(=O)Nc4cc5ccccc5[n+](C)c4)ccc2c2nc4c5cccnc5c5ncccc5c4nc32)cc2ccccc21.[Ru+2].c1cnc2c(c1)ccc1cccnc12.c1cnc2c(c1)ccc1cccnc12`, the Kb is reported as 1.4 ± 0.5 × 10^6 M^-1 in [1]; 1.9 ± 0.3 × 10^6 M^-1 in assay [2]; 2.2 ± 0.7 × 10^7 M^-1 in assay [3]; 5.6 ± 1.7 × 10^6 M^-1 in assay [4]; 1.3 ± 0.4 × 10^6 M^-1 in assay [5]; 2.6 ± 0.1 × 10^6 M^-1 in assay [6]. Further, the Kb in the assay with INTER (DNA, G4) TAGGGTTA is given as 1.4 ± 0.2 × 10^7 M^-1; in assay [7], 1.4 ± 0.1 × 10^7 M^-1; in [8] it was 2.2 ± 1.3 × 10^6 M^-1.
